Reference: patent publication US20040220164A1, “Triaza compound immunoregulatory agents” (priority 2001, published 2004)
≈ marks a conversion by molar mass, not a printed value.

Key:
HHV-7 (KHR strain) = assay: Anti-HHV-7 assay in SupT1 cells (antigen expression, flow cytometry, Example 3); format: cell-based; settings: SupT1 cells
Procedure, shortened: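 SupT1 cells pre-incubated 30 min at room temperature with five-fold compound dilutions, then infected with HHV-7. Every 2–3 days from day 4, half the medium and cells were replaced with compound-free medium. Once microscopic CPE appeared, HHV-7 antigen expression was measured by flow cytometry.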

HIV-1 strain NL4.3 = assay: Anti-HIV-1 assay in MT-4 cells (p24 Ag ELISA, Example 3); format: cell-based; settings: MT-4 cells
Procedure, shortened: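 MT-4 cells infected with HIV-1 NL4.3 in presence of five-fold compound dilutions, incubated 3–5 days until strong viral CPE in untreated infected cells. Supernatant p24 core antigen measured by ELISA; IC50 is concentration giving 50% reduction in p24.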

CD4 [1] = target: T1, CD4 (Homo sapiens, UniProt P01730); assay: CD4 down-modulation, flow cytometry with FITC-conjugated anti-CD4 (SK3) mAb, MT-4 cells; format: cell-based; design: To study the effect of the CADA derivatives on surface CD4 antigen expression, MT-4 and SupT1 cells were incubated; endogenous in cells; host or cells: MT-4, SupT1, PBMC
CD4 [2] = target: T1, CD4; assay: CD4 down-modulation, flow cytometry with FITC-conjugated anti-CD4 (SK3) mAb, SupT1 cells; format: cell-based; design: To study the effect of the CADA derivatives on surface CD4 antigen expression, MT-4 and SupT1 cells were incubated; endogenous in cells; host or cells: MT-4, SupT1, PBMC; settings: day 4
Procedure, shortened: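 MT-4 and SupT1 cells were exposed at 37 °C to 5-fold compound dilutions (50–0.08 μg/ml). On day 3 (MT-4) or day 4 (SupT1) they were stained with FITC anti-CD4 (SK3) for 30 min at 4 °C and analysed by flow cytometry. IC50 was derived from MFI as % of untreated control, after isotype subtraction.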

SupT1 cells = assay: Cytotoxicity assay (trypan blue exclusion, propidium iodide); format: cell-based, human
Method: (§1) Cytotoxicity Assay. Cellular toxicity of the compounds was measured by trypan blue exclusion and also by Propidium Iodide by flow cytometry after 3 or 4 days of incubation, in parallel with the CD4 antigen expression. The CC50 value of each CADA analog is the concentration (in μg/ml) required to reduce the viability of the cells by 50%.

MT-4 cells = assay: as above; format: cell-based, human
Method: as §1

With `C=C1CN(S(=O)(=O)c2ccc(C)cc2)CCCN(Cc2cccnc2)CCCN(S(=O)(=O)c2ccc(C)cc2)C1` [AS-N6P6] the “IC50 HHV-7 (50% reduction of HHV-7 antigen expression)” value (HHV-7 (KHR strain)) was 1.50 µg/mL, the “IC50 HIV-1 (NL4.3), p24 Ag ELISA” value (HIV-1 strain NL4.3) was 2.38 µg/mL (≈ 4.08 µM) and the “IC50 CD4 (50% inhibition of extracellular CD4 expression)” value (CD4 [1]; MT-4 cells, day 3) was 3.22 µg/mL. For the same compound, the “CD4 down-modulating activity, fold less active than CADA” value (CD4 [1]; compared to CADA, MT-4 cells (stated for some compounds)) was 7 fold, the “IC50 CD4 (50% inhibition of extracellular CD4 expression)” value (CD4 [2]) was 4.27 µg/mL and the “CC50 (50% cytotoxic concentration)” value (SupT1 cells) was greater than 50 µg/mL. The “CC50 (50% cytotoxic concentration)” value (MT-4 cells) was 21.4 µg/mL (≈ 36.7 µM).
